11 compounds from US4232010A, “Calcium-antagonistic composition” (Kanebo, Ltd., priority 1978, dated 1980) can be followed below.

Read-outs that look alike come from different tables or passages of the source.

Series [1] relates to isolated guinea-pig heart. The experiment in a line: Action on coronary blood flow, isolated guinea-pig heart (Langendorff). Particulars: Cavia porcellus, dosage 10 γ/heart, read-out: Maximum increase in coronary flow (Δ% ± standard error). The procedure: Male guinea-pigs with body weights from 400 to 500 g were slaughtered and promptly thoractomized. After the ascending aorta was cannulated, the heart was enucleated. By the method of Langendorff, this isolated heart was perfused with the Krebs-Henseleit fluid oxygenated with a gaseous mixture of 95% O2 and 5% CO2 at a fluid temperature of 34°±1° C. and perfusion pressure of 60 cm H2 O, and the test compound was infused. The coronary flows before and after infusion were measured and the percent gain in coronary flow was obtained. The coronary flow was measured with a square-wave electromagnetic flowmeter (Nihon Kohden, MF-26) with an extracorporeal probe (Nihon Kohden, FE) set at the top of the cannula and recorded with a multipurpose polygraph (Nihon Kohden, RM-85). The test compound was dissolved in propylene glycol to a concentration of 100 γ/ml and 0.1 ml of the solution was infused at the rate of 0.1 ml/min.

Series [2] in a line: Acute toxicity test in mice, intraperitoneal. Particulars: mouse, in vivo, ip, male ddY mice, deaths within 72 hours. The procedure: An acute toxicity test was performed in male ddY mice (in groups of 5 animals, body weights 20±2 g) by the intraperitoneal administration of a test compound.
A suspension of each compound in 0.5% carboxymethylcellulose was administered, the deaths within 72 hours were counted and the LD50 values were calculated by the method of Weil.

The target of the next series is T1, taenia coli (Cavia porcellus, UniProt O35505).
T1 construct: a test was conducted using isolated taenia colis about 2 cm long; from tissue; host or cells: isolated guinea-pig taenia coli
Kind of series: Calcium antagonist activity (pA2), isolated guinea-pig taenia coli. Particulars: 5 cases, read-out: pA2 (mean ± standard error) of calcium antagonist activity (converted). The procedure:
(§1) Male guinea-pigs weighing 350-450 g each were slaughtered and a test was conducted using isolated taenia colis about 2 cm long. A taenia coli was suspended in a Magnus chamber (Locke solution, 25°±2° C., aerated) and the contractile response of the taenia coli was recodered through an isotonic transducer. To the decalcified taenia coli was cumulatively added 0.1 to 100 mM of calcium in the presence of 6×10^-3 g/ml of K^+ to obtain a dose-contraction curve for calcium and, after the taenia coli was decalcified again, a dose-contraction curve for calcium was determined in the presence of the test compound. Based on the difference between the responses, the pA2 of calcium antagonist activity of the test compound was computed.

For series [3], the target named is T2, taenia coli (Cavia porcellus).
T2 construct: a test was conducted using isolated taenia colis about 2 cm long; from tissue; host or cells: isolated guinea-pig taenia coli
The series is described as above. The procedure:
as §1

In series [4] the test system is coronary flow and blood pressure. The experiment in a line: Action on coronary flow and blood pressure (intravenous administration into dogs). In kind it is in vivo, dog. Particulars: 0.2 mg/kg. The protocol:
Dogs weighing 11 to 24 kg were anaesthetized with pentobarbital sodium (35 mg/kg, intraperitoneal) and, under supportive respiration, a right thoractomy was performed by removing the fourth rib. The pericardial membrane was then incised to expose the heart. The coronary sinus flow was measured with a cannula inserted from the right auricle into the coronary sinus and connected to an electromagnetic flowmeter (Nihon Kohden K.K., MF-26.) The outflowing blood was returned to the femoral vein through a rubber tubing.
The blood pressure was measured with a pressure transducer (Nihon Kohden K.K., MPU-0.5) connected to the cannula inserted into the femoral artery, and was recorded with a multipurpose polygraph (Nihon Kohden K.K., RM-85) which also recorded the coronary blood flow. The heart rate was calculated based on the electrocardiogram. The test compound was dissolved in dog serum and injected into the femoral vein.

Series [5] shares this test system. Kind of series: Activity on intraduodenal administration to dogs (coronary flow, blood pressure, heart rate). The note with it: 10 mg/kg. It counts as in vivo, dog. The protocol:
Dogs weighing 12 to 22 kg were anaesthetized with pentobarbital sodium [35 mg/kg, i.p.] and under supportive respiration, a left thoractomy was performed at the fourth interspace. The pericardium was incised to expose the heart and the blood flow through circumflex branch of left coronary was measured with an electromagnetic flowmeter (Nihon Kohden K.K., MF-26). The blood pressure was measured from a cannula inserted into the carotid artery through a pressure transducer (Nihon Kohden K.K., MPU-0.5), while the heart rate was calculated based on the electrocardiogram. The abdomen was sutured with the end of the cannula left out of the body and the test compound was administered. The test compound was diluted with 0.5% CMC to a concentraion of 10 mg/ml and administered at a dose of 10 mg/kg.

The mark [6] stands for this setting: time after administration 5 (unit not given).
Setting [7] is: time after administration 30 (unit not given).
[8] abbreviates: time after administration 60 (unit not given).
Where [9] appears, read: time after administration 120 (unit not given).

T1 sequence (O35505 whole entry): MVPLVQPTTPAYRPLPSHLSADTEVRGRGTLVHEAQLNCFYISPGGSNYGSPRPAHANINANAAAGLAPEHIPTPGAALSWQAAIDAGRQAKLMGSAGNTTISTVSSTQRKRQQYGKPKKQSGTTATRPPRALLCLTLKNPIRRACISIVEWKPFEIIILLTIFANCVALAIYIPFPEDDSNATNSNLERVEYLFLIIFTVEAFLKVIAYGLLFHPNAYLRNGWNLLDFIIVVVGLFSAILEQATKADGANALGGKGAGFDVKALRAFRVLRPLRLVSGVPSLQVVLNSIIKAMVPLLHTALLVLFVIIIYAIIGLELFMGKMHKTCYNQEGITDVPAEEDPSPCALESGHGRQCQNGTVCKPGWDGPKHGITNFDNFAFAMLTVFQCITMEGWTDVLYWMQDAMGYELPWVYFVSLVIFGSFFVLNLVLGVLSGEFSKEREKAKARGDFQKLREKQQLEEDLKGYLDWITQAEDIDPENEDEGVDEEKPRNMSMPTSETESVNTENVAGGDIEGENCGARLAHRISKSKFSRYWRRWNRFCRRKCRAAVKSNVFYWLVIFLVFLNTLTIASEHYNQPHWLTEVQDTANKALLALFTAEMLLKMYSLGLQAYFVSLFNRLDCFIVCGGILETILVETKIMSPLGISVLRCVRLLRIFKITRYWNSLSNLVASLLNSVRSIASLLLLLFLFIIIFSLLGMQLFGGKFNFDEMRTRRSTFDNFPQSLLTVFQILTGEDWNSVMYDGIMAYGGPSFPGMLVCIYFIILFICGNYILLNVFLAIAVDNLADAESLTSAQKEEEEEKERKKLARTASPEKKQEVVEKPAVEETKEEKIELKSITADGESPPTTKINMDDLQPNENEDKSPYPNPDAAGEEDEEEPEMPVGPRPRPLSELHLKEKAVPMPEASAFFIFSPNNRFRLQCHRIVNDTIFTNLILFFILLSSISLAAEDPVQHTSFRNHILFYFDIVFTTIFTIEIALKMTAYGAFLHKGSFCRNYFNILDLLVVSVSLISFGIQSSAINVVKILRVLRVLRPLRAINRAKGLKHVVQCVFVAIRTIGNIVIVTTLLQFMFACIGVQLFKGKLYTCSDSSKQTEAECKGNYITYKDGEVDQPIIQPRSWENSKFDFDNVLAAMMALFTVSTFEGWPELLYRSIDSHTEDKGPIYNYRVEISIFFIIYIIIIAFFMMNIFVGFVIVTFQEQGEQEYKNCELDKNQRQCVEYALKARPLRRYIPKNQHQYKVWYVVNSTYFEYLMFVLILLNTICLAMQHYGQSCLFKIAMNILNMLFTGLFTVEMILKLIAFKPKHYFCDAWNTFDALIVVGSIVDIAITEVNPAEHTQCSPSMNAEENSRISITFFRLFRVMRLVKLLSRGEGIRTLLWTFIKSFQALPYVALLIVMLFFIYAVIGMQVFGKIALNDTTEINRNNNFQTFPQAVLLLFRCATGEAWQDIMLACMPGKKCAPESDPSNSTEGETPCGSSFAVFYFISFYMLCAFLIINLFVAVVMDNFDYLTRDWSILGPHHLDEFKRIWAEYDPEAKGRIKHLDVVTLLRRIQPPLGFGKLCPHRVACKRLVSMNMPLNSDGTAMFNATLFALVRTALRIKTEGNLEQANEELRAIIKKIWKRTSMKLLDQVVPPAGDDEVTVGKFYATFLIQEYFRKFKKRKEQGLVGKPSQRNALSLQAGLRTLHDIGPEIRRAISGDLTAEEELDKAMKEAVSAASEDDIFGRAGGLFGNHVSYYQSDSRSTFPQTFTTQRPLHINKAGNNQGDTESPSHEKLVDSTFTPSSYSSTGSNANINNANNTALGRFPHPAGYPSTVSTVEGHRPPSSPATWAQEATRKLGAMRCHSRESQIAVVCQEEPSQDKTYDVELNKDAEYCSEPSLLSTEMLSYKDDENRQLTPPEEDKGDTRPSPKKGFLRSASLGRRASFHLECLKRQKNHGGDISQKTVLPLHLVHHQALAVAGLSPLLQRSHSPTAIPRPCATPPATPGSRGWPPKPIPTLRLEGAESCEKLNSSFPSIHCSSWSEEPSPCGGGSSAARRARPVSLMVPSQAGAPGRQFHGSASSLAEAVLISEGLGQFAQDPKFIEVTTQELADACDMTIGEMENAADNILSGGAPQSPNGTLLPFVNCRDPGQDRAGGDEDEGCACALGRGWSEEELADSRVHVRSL
T2 sequence (O35505 whole entry): as above

On to `CC(C)OP(=O)(Cc1ccc(-c2nc3ccccc3s2)cc1)OC(C)C` [1-(benzothiazol-2-yl)-4-di-iso-propyloxyphosphinylmethylbenzene], for which, in series [1], the activation at 10 µg/heart is 90.7 ± 31.7%. Further, in series [2], the LD50 at 72 h was found to be 1660 mg/kg. For the same compound, the Kb on taenia coli (test compound 3 × 10^-6 g/ml) was 0.776 µM.
For `CCCCOP(=O)(Cc1ccc(-c2nc3ccccc3s2)cc1)OCCCC` [1-(benzothiazol-2-yl)-4-di-n-butyloxyphosphinylmethylbenzene], the activation at 10 µg/heart in series [1] was 65.1 ± 22.8%. For the same compound, the LD50 at 72 h in series [2] was more than 2250 mg/kg.
In the same order, the values of `CCCOP(=O)(Cc1ccc(-c2nc3ccccc3s2)cc1)OCCC` [1-(benzothiazol-2-yl)-4-di-n-propyloxyphosphinylmethylbenzene] are 65.1 ± 12.2% and more than 2250 mg/kg.
On to `CCOP(=O)(Cc1ccc(-c2nc3ccccc3s2)cc1)OCC` [1-(benzothiazol-2-yl)-4-diethoxyphosphinylmethylbenzene], for which the activation at 10 µg/heart in series [1] was found to be 83.8 ± 9%. In series [2], the LD50 at 72 h is 962 mg/kg. In series [3], the Kb was 0.12 µM. Also, in series [4], the “Change in heart rate (Δbeats/min. ± standard error)” value is recorded as -11.2 ± 2.1 Δbeats/min, the “Increase in coronary senus outflow (Δ% ± standard error)” value is 42.8 ± 6.2 Δ% and the “Mean change in blood pressure (ΔmmHg ± standard error)” value is on record as -10.0 ± 3.6 ΔmmHg.
For the compound `COP(=O)(Cc1ccc(-c2nc3ccccc3s2)cc1)OC` [1-(benzothiazol-2-yl)-4-dimethoxyphosphinylmethylbenzene], the activation at 10 µg/heart in series [1] was 38.5 ± 13.6%. For the same compound, the LD50 at 72 h in series [2] came out at 1070 mg/kg.
`CC(C)OP(=O)(Cc1ccc(-c2nc3ccccc3s2)nc1)OC(C)C` [2-(benzothiazol-2-yl)-5-di-iso-propyloxyphosphinylmethylpyridine]: the activation at 10 µg/heart in series [1] turned out to be 79.9 ± 13.1%. Also, the LD50 at 72 h in series [2] is more than 2250 mg/kg. The Kb on taenia coli (test compound 1 × 10^-6 g/ml) is 2.57 µM.
For the compound `CCCCOP(=O)(Cc1ccc(-c2nc3ccccc3s2)nc1)OCCCC` [2-(benzothiazol-2-yl)-5-di-n-butyloxyphosphinylmethylpyridine], in series [1], the activation at 10 µg/heart came to 50.3 ± 10.8%. The Kb at taenia coli (test compound 1 × 10^-6 g/ml) was 4.07 µM.
Regarding `CCCOP(=O)(Cc1ccc(-c2nc3ccccc3s2)nc1)OCCC` [2-(benzothiazol-2-yl)-5-di-n-propyloxyphosphinylmethylpyridine], the activation at 10 µg/heart in series [1] was 66 ± 21.6%. In series [2], the LD50 at 72 h was determined as 713 mg/kg. The Kb at taenia coli (test compound 1 × 10^-6 g/ml) is 1.12 µM.
On to `CCOP(=O)(Cc1ccc(-c2nc3ccccc3s2)nc1)OCC` [2-(benzothiazol-2-yl)-5-diethoxyphosphinylmethylpyridine], for which the activation at 10 µg/heart in series [1] stood at 98.6 ± 10.6%. Also, the LD50 at 72 h in series [2] amounted to 1060 mg/kg. For the same compound, the Kb in series [3] was 0.0372 µM. The “Change in heart rate (Δbeats/min. ± standard error)” value in series [4] is reported as -16.3 ± 3.2 Δbeats/min; in series [5] (setting [6]) it was -5.6 ± 1.2 Δbeats/min; in series [5] (setting [7]), -23.3 ± 3.8 Δbeats/min; in series [5] (setting [8]), -26.9 ± 3.8 Δbeats/min; in series [5] (setting [9]), -26.4 ± 3.8 Δbeats/min. In addition, in series [4], the “Increase in coronary senus outflow (Δ% ± standard error)” value is listed as 74.4 ± 7.3 Δ%. Besides, the “Mean change in blood pressure (ΔmmHg ± standard error)” value was -14.5 ± 5.4 ΔmmHg in series [4]; -12.9 ± 3.4 ΔmmHg in series [5] (setting [6]); -12.4 ± 2.3 ΔmmHg in series [5] (setting [7]); -11.0 ± 3.5 ΔmmHg in series [5] (setting [8]); -11.2 ± 3.9 ΔmmHg in series [5] (setting [9]). In addition, the “Increase in blood flow through circumflex branch of left coronary (Δ% ± standard error)” value in series [5] (setting [6]) is listed as 14.3 ± 7.4 Δ%; in series [5] (setting [7]), 37.7 ± 9.6 Δ%; in series [5] (setting [8]), 54.4 ± 11.3 Δ%; in series [5] (setting [9]) it was 50.7 ± 12.7 Δ%.
`COP(=O)(Cc1ccc(-c2nc3ccccc3s2)nc1)OC` [2-(benzothiazol-2-yl)-5-dimethoxyphosphinylmethylpyridine]: the activation at 10 µg/heart in series [1] came to 28.6 ± 3.8%.
Turning to `COc1ccc([C@@H]2Sc3ccccc3N(CCN(C)C)C(=O)[C@@H]2OC(C)=O)cc1` [Diltiazem, reference compound], the activation at 10 µg/heart in series [1] is 66 ± 7.1%. The “Change in heart rate (Δbeats/min. ± standard error)” value is listed as -20.5 ± 7.8 Δbeats/min in series [4], 1.6 ± 2.0 Δbeats/min in series [5] (setting [6]), -13.2 ± 1.2 Δbeats/min in series [5] (setting [7]) and -23.6 ± 4.0 Δbeats/min in series [5] (setting [9]). Moreover, in series [4], the “Increase in coronary senus outflow (Δ% ± standard error)” value is listed as 67.9 ± 8.5 Δ%. Moreover, the “Mean change in blood pressure (ΔmmHg ± standard error)” value in series [4] was -21.4 ± 6.1 ΔmmHg; in series [5] (setting [6]), -2.4 ± 1.3 ΔmmHg; in series [5] (setting [7]), -11.0 ± 1.3 ΔmmHg; in series [5] (setting [8]), -14.4 ± 2.3 ΔmmHg; in series [5] (setting [9]), -16.0 ± 4.7 ΔmmHg. Also, the “Increase in blood flow through circumflex branch of left coronary (Δ% ± standard error)” value was 1.8 ± 1.8 Δ% in series [5] (setting [6]), 34.4 ± 8.2 Δ% in series [5] (setting [7]), 33.0 ± 12.2 Δ% in series [5] (setting [8]) and 34.8 ± 15.1 Δ% in series [5] (setting [9]).

Usually LD50 stands for the dose expected to kill half of the subjects tested.
